Source: patent publication US5541190A, “Benzo(F)quinolinones” (priority 1995, dated 1996)

target: T1, 5α-reductase (Homo sapiens, UniProt P18405); assay: Inhibition of 5α-reductase activity (testosterone to 5α-dihydrotestosterone conversion) in Hs68 human genital skin fibroblasts; type: cell-based; conditions: 0.316 μM test compound, 12 μM testosterone substrate, four hours
T1 construct: host or cells: Hs68 human genital skin fibroblasts
T1 sequence (P18405 1-259): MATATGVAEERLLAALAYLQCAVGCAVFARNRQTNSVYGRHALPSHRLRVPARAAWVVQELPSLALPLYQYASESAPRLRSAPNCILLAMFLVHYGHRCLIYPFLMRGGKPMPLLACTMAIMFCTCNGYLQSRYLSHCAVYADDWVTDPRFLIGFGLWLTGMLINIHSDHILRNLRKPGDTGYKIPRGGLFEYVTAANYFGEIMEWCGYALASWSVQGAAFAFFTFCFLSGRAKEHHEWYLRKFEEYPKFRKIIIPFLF
Experimental: Cell Culture:5α-Reductase activity was measured using Hs68 human genital skin fibroblasts which were originally purchased from the American Type Culture Collection (Rockville, Md.). The cells were grown in Dulbecco's Modified Eagle's Medium (DMEM) plus 10% stripped fetal bovine serum which was supplemented with amphotericin B (0.25 mg/ml) and gentamicin (25.0 mg/ml) (GIBCO, Grand Island, N.Y.). The serum was stripped of endogenous steroids by incubation with dextran-coated charcoal prior to its addition to the media. The cells were maintained at 37° C. in an atmosphere of 95% air, 5% CO2 and were passaged every 7-10 days by exposure to a trypsin-EDTA solution (0.025% trypsin, 0.265 mM EDTA). Prior to the assay the Hs68 cells were harvested and plated in Falcon 6-well plates (Becton Dickinson Labware, Lincoln Park, N.J.) at a density of 6×10^4 cells per well. The cells were allowed to grow for 4-5 days or until they reached approximately 80% confluence.
Assay Method I:The substrate was prepared by dissolving unlabeled testosterone (Sigma Chemical Co., St. Louis, Mo.) in absolute ethanol followed by the addition of [7-^3 H (N)]-testosterone (23.3 Ci/mmole, New England Nuclear, Boston, Mass.). The steroid solution was taken to dryness under a stream of nitrogen and then reconstituted in media.
Assay Method II:The substrate used for this method was [^14 C]-testosterone (50 mCi/mmol) (New England Nuclear, Boston, Mass.). An aliquot of the substrate was taken to dryness under a stream of nitrogen. After the addition of 30 μl of ethanol, the testosterone was dissolved in an appropriate volume of media.
Sample Preparation:The test compounds were brought up in absolute ethanol in order to achieve the desired concentration. Subsequent dilutions of the test compounds with media were performed by the Biomek 1000 Automated Laboratory Workstation (Beckman Instruments, Palo Alto, Calif.). The existing media in the sample wells was aspirated and replaced with fresh media. Test compound was then added to the wells followed by the addition of 0.5 ml of substrate. The volume of the incubation mixture was maintained at 2.0 ml. The final substrate concentration was 12 μM. The concentration of the test compounds ranged from 0.001-150 μM. An additional three wells (background) containing media and substrate but no cells were also included to account for the non-enzymatic metabolism of the substrate. The plates were returned to the incubator and incubated for four hours.
At the end of the incubation the media was collected and transferred to an extraction tube containing 5 ml of toluene-ethanol (9:1), to which has been added 20-250 μg each. of unlabeled carrier steroids (estriol, estradiol, estrone, 5α-androstan-3α,17β-diol, 5α-androstan-3β,17β-diol, -androstene-3,17-dione, 5α-androstan-3,17-dione, testosterone, and 5α-dihydrotestosterone) (Steraloids, Inc., Wilton, N.H.). In the case of Assay Method I the extraction tube also contained 1,000 and 10,000 dpm of [4-^14 C]-dihydrotestosterone (50-60 mCi/mmol) and [4-^14 C]-testosterone (50 mCi/mmol) (New England Nuclear, Boston, Mass.), respectively. The [^14 C]-steroids were included as recovery standards to quantify procedural losses. A small amount of NaCl was also added to the extraction tubes to prevent foaming. The samples were vortexed for approximately 30 seconds and then centrifuged for 10 minutes at 500×g. The organic phase was collected and the samples taken to dryness, redissolved in dichloromethane-methanol (9:1) and were analyzed by thin layer chromatography using one of the methods described below.
Chromatography Method I (two-dimensional):The extracted samples were appled to silica gel 60F254, 0.25 mm thick, thin layer chromatography plates (EM Science, Cincinnati, Ohio). The plates were developed in the first dimension with a solvent system containing dichloromethaneethyl acetate-methanol-acetic acid (160:38:1.5:0.5, Mallinckrodt Inc., Paris, Ky.).

Point of comparison: C[C@H]1C[C@@H]2c3ccc(Cl)cc3CC[C@H]2N(C)C1=O (relative stereo) [Example 26B, trans-dl-8-chloro-2-(β-methyl)-4-methyl-1,2,3,4,4a,5,6,10b-octahydrobenzo[f]quinolin-3-one], inhibition at 0.316 µM 76.4%. Against it:
- C[C@@H]1C[C@@H]2c3ccc(Cl)cc3CC[C@H]2N(C)C1=O (relative stereo) [Example 26A, trans-dl-8-chloro-2-(α-methyl)-4-methyl-1,2,3,4,4a,5,6,10b-octahydrobenzo[f]quinolin-3-one] — higher, 82.6%
- CN1C(=O)CC[C@H]2c3ccc(Br)cc3C(C)(C)C[C@@H]21 (relative stereo) [Example 28, trans-dl-8-bromo-4,6,6-trimethyl-1,2,3,4,4a,5,6,10b-ocathydrobenzo[f]quinolin-3-one] — higher, 78%
- CN1C(=O)CC[C@H]2c3ccc(Br)cc3C(C)(C)C[C@H]21 (relative stereo) [Example 29, cis-dl-8-bromo-4,6,6-trimethyl-1,2,3,4,4a,5,6,10b-octahydrobenzo[f]quinolin-3-one] — lower, 56.1%
- C[C@]12CCC(=O)N[C@@H]1CCc1cc(Cl)ccc12 (relative stereo) [Example 40, Trans-8-chloro-10b-methyl-1,2,3,4,4a,5,6,10-octhydrobenzo[f]-quinolin-3-one] — lower, 25.6%
- COc1ccc(CN2C(=O)CC[C@@]3(C)c4ccc(Cl)cc4CC[C@H]23)cc1 (relative stereo) [Example 44, Trans-4-(4-methoxybenzyl)-8-chloro-10b-methyl-1,2,3,4,4a,5,6,10b-octahydrobenzo[f]quinolin-3-one] — lower, 5.7%

same assay, conditions: 1.00 μM test compound, 12 μM testosterone substrate, four hours

Point of comparison: CN1C(=O)CC[C@]2(C)c3ccc(Cl)cc3CC[C@H]12 (relative stereo) [Example 35, cis-dl-8-chloro-4,10b-dimethyl-1,2,3,4,4a,5,6,10b-octahydrobenzo[f]quinolin-3-one], inhibition at 1 µM 76.2%. Against it:
- CN1C(=O)CC[C@H]2c3ccc(Cl)cc3CC[C@@H]21 (relative stereo) [Example 6, trans-dl-8-chloro-4-methyl-1,2,3,4,4a,5,6,10b-octahydrobenzo[f]quinolin-3-one] — higher, 100%
- CN1C(=O)CC[C@H]2c3ccccc3CC[C@@H]21 (relative stereo) [Example 12, trans-dl-4-methyl-1,2,3,4,4a,5,6,10b-octahydrobenzo[f]quinolin-3-one] — higher, 78.7%
- CN1C(=O)CC[C@H]2c3ccccc3CC[C@H]21 (relative stereo) [Example 13, cis-dl-4-methyl-1,2,3,4,4a,5,6,10b-octahydrobenzo[f]quinolin-3-one] — lower, 32%
- CN1C(=O)CC[C@@]2(C)c3ccccc3CC[C@H]12 (relative stereo) [Example 37, trans-dl-4,10b-dimethyl-1,2,3,4,4a,5,6,10b-octahydrobenzo[f]quinolin-3-one] — lower, 40%

same assay, conditions: 15.00 μM test compound, 12 μM testosterone substrate, four hours

Point of comparison: C[C@]12CCC(=O)N[C@H]1CCc1cc(Cl)ccc12 (relative stereo) [Example 41, cis-8-chloro-10b-methyl-1,2,3,4,4a,5,6,10-octahydrobenzo[f]quinolin-3-one], inhibition at 15 µM 58.4%. Against it:
- O=C1CC[C@H]2c3cc([N+](=O)[O-])ccc3CC[C@@H]2N1 (relative stereo) [Example 46, trans-dl-9-nitro-1,2,3,4,4a,5,6,10b-octahydrobenzo[f]quinolin-3-one] — higher, 69.9%
